{"source": "patent US10544130B2", "about": "“Metallo-beta-lactamase inhibitors” (priority 2015, dated 2020)", "data": [{"system": "Pseudomonas aeruginosa PAO1 MB9798 (efflux+, IMP-1)", "settings": "ratio MITC95 PA 9798/MITC95 PA 9799; imipenem at 2 μg/mL", "in_short": "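Isogenic PAO1 pair (efflux+ MB9798, efflux− MB9799, both IMP-1) tested by microbroth MIC with fixed imipenem and/or ceftazidime, usually at CLSI breakpoint, plus fixed class A/C inhibitor against AmpC. MBL inhibitor titrated; concentration restoring susceptibility recorded and fold difference between strains taken as efflux extent.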", "values": [{"smiles": "NS(=O)(=O)c1c(S(=O)(=O)N[C@@H]2CCNC2)ccc(-c2cccc3nonc23)c1-c1nn[nH]n1", "note": "[Example 238, (R)-4-(benzo[c][1,2,5]oxadiazol-4-yl)-N^1-(pyrrolidin-3-yl)-3-(2H-tetrazol-5-yl)benzene-1,2-disulfonamide]", "Efflux ratio": 4.00}, {"smiles": "Nc1nc2c(-c3ccc(S(=O)(=O)NC4CNC[C@H]4N)c(S(N)(=O)=O)c3-c3nn[nH]n3)cccc2[nH]1", "note": "(stereo in doubt) [Example 322, 4-(2-Amino-1H-benzo[d]imidazol-4-yl)-N1-((3S,4R)-4-aminopyrrolidin-3-yl)-3-(2H-tetrazol-5-yl)benzene-1,2-disulfonamide]", "Efflux ratio": 0.83}, {"smiles": "Nc1nc2c(-c3ccc(S(=O)(=O)NC4CCC5OC4CC5N)c(S(N)(=O)=O)c3-c3nnn[nH]3)cccc2s1.O=C(O)C(F)(F)F", "note": "(centres unmarked) [Example 95, 2-(4-(2-aminobenzo[d]thiazol-4-yl)-2-sulfamoyl-3-(1H-tetrazol-5-yl)phenylsulfonamido)-8-oxabicyclo[3.2.1] octan-6-aminium 2,2,2-trifluoroacetate]", "Efflux ratio": 1.00}, {"smiles": "Cl.Cn1c(N)nc2c(-c3ccc(S(=O)(=O)NCCN)c(S(N)(=O)=O)c3-c3nn[nH]n3)cccc21", "note": "[Example 10, 4-(2-amino-1-methyl-1H-benzo[d]imidazol-4-yl)-N1-(2-aminoethyl)-3-(2H-tetrazol-5-yl)benzene-1,2-disulfonamide hydrochloride]", "Efflux ratio": 1.00}, {"smiles": "Nc1nc2c(-c3ccc(S(=O)(=O)NC4CC5CNC4C5)c(S(N)(=O)=O)c3-c3nnn[nH]3)cccc2s1", "note": "(centres unmarked) [Example 89, 4-(2-aminobenzo[d]thiazol-4-yl)-N^1-(2-azabicyclo[2.2.1]heptan-6-yl)-3-(1H-tetrazol-5-yl)benzene-1,2-disulfonamide]", "Efflux ratio": 1.00}, {"smiles": "Nc1nc2c(-c3ccc(S(=O)(=O)N[C@@H]4CN[C@H](CO)C4)c(S(N)(=O)=O)c3-c3nnn[nH]3)cccc2s1", "note": "[Example 80, 4-(2-amino-1,3-benzothiazol-4-yl)-N1-[(3S,5S)-5-(hydroxymethyl)pyrrolidin-3-yl]-3-(1H-tetrazol-5-yl)benzene-1,2-disulfonamide]", "Efflux ratio": 1.00}, {"smiles": "Nc1nc2c(-c3ccc(S(=O)(=O)NC4(CO)CCNC4)c(S(N)(=O)=O)c3-c3nnn[nH]3)cccc2s1", "note": "(centres unmarked) [Example 83, 4-(2-amino-1,3-benzothiazol-4-yl)-N1-[3-(hydroxymethyl)pyrrolidin-3-yl]-3-(1H-tetrazol-5-yl)benzene-1,2-disulfonamide]", "Efflux ratio": 0.50}, {"smiles": "Nc1nc2c(-c3ccc(S(=O)(=O)NCC4(F)CNC4)c(S(N)(=O)=O)c3-c3nnn[nH]3)cccc2s1.O=CO", "note": "[Example 91, 3-(((4-(2-aminobenzo[d]thiazol-4-yl)-2-sulfamoyl-3-(1H-tetrazol-5-yl)phenyl)sulfonamido)methyl)-3-fluoroazetidin-1-ium formate]", "Efflux ratio": 1.00}, {"smiles": "Nc1nc2c(-c3ccc(S(=O)(=O)N4CCC[C@@H](N)C4)c(S(N)(=O)=O)c3-c3nnn[nH]3)cccc2s1", "note": "[Example 68, 3-(2-amino-1,3-benzothiazol-4-yl)-6-{[(3R)-3-aminopiperidin-1-yl]sulfonyl}-2-(1H-tetrazol-5-yl)benzenesulfonamide]", "Efflux ratio": 2.00}, {"smiles": "Nc1nc2c(-c3ccc(S(=O)(=O)N4CCC(N)(CO)C4)c(S(N)(=O)=O)c3-c3nnn[nH]3)cccc2s1", "note": "(centres unmarked) [Example 55, 3-(2-amino-1,3-benzothiazol-4-yl)-6-{[3-amino-3-(hydroxymethyl)pyrrolidin-1-yl]sulfonyl}-2-(1H-tetrazol-5-yl)benzenesulfonamide]", "Efflux ratio": 1.00}, {"smiles": "C[N+]1(C)CC[C@@H](NS(=O)(=O)c2ccc(-c3cccc4[nH]c(N)nc34)c(-c3nn[nH]n3)c2S(N)(=O)=O)C1.[Cl-]", "note": "[Example 233, (R)-3-((4-(2-amino-1H-benzo[d]imidazol-4-yl)-2-sulfamoyl-3-(2H-tetrazol-5-yl)phenyl)sulfonamido)-1,1-dimethylpyrrolidin-1-ium chloride]", "Efflux ratio": 1.00}, {"smiles": "Nc1nc2c(-c3ccc(S(=O)(=O)NCC4(CO)CC4)c(S(N)(=O)=O)c3-c3nnn[nH]3)cccc2s1", "note": "[Example 37, 4-(2-amino-1,3-benzothiazol-4-yl)-N1-{[1-(hydroxymethyl)cyclopropyl]methyl}-3-(1H-tetrazol-5-yl)benzene-1,2-disulfonamide]", "Efflux ratio": 1.00}, {"smiles": "NCCNS(=O)(=O)c1ccc(-c2cccc3[nH]cnc23)c(-c2nn[nH]n2)c1S(N)(=O)=O", "note": "[Example 199, N^1-(2-aminoethyl)-4-(1H-benzo[d]imidazol-4-yl)-3-(2H-tetrazol-5-yl)benzene-1,2-disulfonamide]", "Efflux ratio": 0.55}, {"smiles": "C[C@H]1NC(=O)O[C@H]1c1ccc(-c2ccc(S(=O)(=O)N[C@@H]3CCNC3)c(S(N)(=O)=O)c2-c2nnn[nH]2)cc1", "note": "[Example 141, 4'-((4R,5S)-4-methyl-2-oxooxazolidin-5-yl)-N4-((R)-pyrrolidin-3-yl)-2-(1H-tetrazol-5-yl)-[1,1'-biphenyl]-3,4-disulfonamide]", "Efflux ratio": 1.00}, {"smiles": "Nc1nc2c(-c3ccc(S(=O)(=O)N[C@H]4CNC[C@@H]4F)c(S(N)(=O)=O)c3-c3nnn[nH]3)cccc2s1", "note": "[Example 59, 4-(2-amino-1,3-benzothiazol-4-yl)-N1-[(3S,4S)-4-fluoropyrrolidin-3-yl]-3-(1H-tetrazol-5-yl)benzene-1,2-disulfonamide]", "Efflux ratio": 1.00}, {"smiles": "CC(CN1CCOCC1)NS(=O)(=O)c1ccc(-c2cccc3sc(N)nc23)c(-c2nnn[nH]2)c1S(N)(=O)=O", "note": "(centres unmarked) [Example 51, 4-(2-amino-1,3-benzothiazol-4-yl)-N1-(1-methyl-2-morpholin-4-ylethyl)-3-(1H-tetrazol-5-yl)benzene-1,2-disulfonamide]", "Efflux ratio": 4.00}, {"smiles": "NCCCNS(=O)(=O)c1ccc(-c2cccc3[nH]c(N)nc23)c(-c2nn[nH]n2)c1S(N)(=O)=O", "note": "[Example 182, 4-(2-amino-1H-benzo[d]imidazol-4-yl)-N1-(3-aminopropyl)-3-(2H-tetrazol-5-yl)benzene-1,2-disulfonamide]", "Efflux ratio": 0.80}, {"smiles": "Nc1nc2c(-c3ccc(S(=O)(=O)NCCC(N)C(F)F)c(S(N)(=O)=O)c3-c3nnn[nH]3)cccc2s1.O=CO", "note": "(centres unmarked) [Example 124, 4-(4-(2-aminobenzo[d]thiazol-4-yl)-2-sulfamoyl-3-(1H-tetrazol-5-yl)phenylsulfonamido)-1,1-difluorobutan-2-aminium formate]", "Efflux ratio": 4.00}, {"smiles": "NCCNS(=O)(=O)c1ccc(-c2cc(F)cc3[nH]c(N)nc23)c(-c2nnn[nH]2)c1S(N)(=O)=O", "note": "[Example 180, 4-(2-amino-6-fluoro-1H-benzo[d]imidazol-4-yl)-N^1-(2-aminoethyl)-3-(1H-tetrazol-5-yl)benzene-1,2-disulfonamide]", "Efflux ratio": 0.50}, {"smiles": "Nc1nc2c(-c3ccc(S(=O)(=O)N[C@H]4CNC[C@@H]4O)c(S(N)(=O)=O)c3-c3nnn[nH]3)cccc2[nH]1", "note": "[Example 169, 4-(2-amino-1H-benzo[d]imidazol-4-yl)-N^1-((3S,4S)-4-hydroxypyrrolidin-3-yl)-3-(1H-tetrazol-5-yl)benzene-1,2-disulfonamide]", "Efflux ratio": 1.00}, {"smiles": "CN1CCCC(NS(=O)(=O)c2ccc(-c3cccc4sc(N)nc34)c(-c3nnn[nH]3)c2S(N)(=O)=O)C1", "note": "(centres unmarked) [Example 18, 4-(2-amino-1,3-benzothiazol-4-yl)-N1-(1-methylpiperidin-3-yl)-3-(1H-tetrazol-5-yl)benzene-1,2-disulfonamide]", "Efflux ratio": 1.00}, {"smiles": "CN1CC(N(C)S(=O)(=O)c2ccc(-c3cccc4sc(N)nc34)c(-c3nnn[nH]3)c2S(N)(=O)=O)C1.O=C(O)C(F)(F)F", "note": "[Example 107, 3-(4-(2-aminobenzo[d]thiazol-4-yl)-N-methyl-2-sulfamoyl-3-(1H-tetrazol-5-yl)phenylsulfonamido)-1-methylazetidin-1-ium 2,2,2-trifluoroacetate]", "Efflux ratio": 4.00}, {"smiles": "CN1CC2(CCN(S(=O)(=O)c3ccc(-c4cccc5sc(N)nc45)c(-c4nnn[nH]4)c3S(N)(=O)=O)C2)C1", "note": "[Example 38, 3-(2-amino-1,3-benzothiazol-4-yl)-6-[(2-methyl-2,6-diazaspiro[3.4]oct-6-yl)sulfonyl]-2-(1H-tetrazol-5-yl)benzenesulfonamide]", "Efflux ratio": 1.00}, {"smiles": "Nc1nc2c(-c3ccc(S(=O)(=O)NCC4COCCN4)c(S(N)(=O)=O)c3-c3nn[nH]n3)cccc2[nH]1", "note": "(centres unmarked) [Example 206, 4-(2-amino-1H-benzo[d]imidazol-4-yl)-N1-(morpholin-3-ylmethyl)-3-(2H-tetrazol-5-yl)benzene-1,2-disulfonamide]", "Efflux ratio": 2.00}, {"smiles": "Nc1nc2c(-c3ccc(S(=O)(=O)N4CCOCC4)c(S(N)(=O)=O)c3-c3nnn[nH]3)cccc2s1", "note": "[Example 29, 3-(2-amino-1,3-benzothiazol-4-yl)-6-(morpholin-4-ylsulfonyl)-2-(1H-tetrazol-5-yl)benzenesulfonamide]", "Efflux ratio": 16.00}, {"smiles": "CS(=O)(=O)Nc1ccc(-c2ccc(S(=O)(=O)N[C@@H]3CCNC3)c(S(N)(=O)=O)c2-c2nnn[nH]2)cc1", "note": "[Example 136, (R)-4′-(methylsulfonamido)-N4-(pyrrolidin-3-yl)-2-(1H-tetrazol-5-yl)-[1,1′-biphenyl]-3,4-disulfonamide]", "Efflux ratio": 2.00}, {"smiles": "Nc1nc2c(-c3ccc(S(=O)(=O)N[C@@H]4CCNC4)c(S(N)(=O)=O)c3-c3nn[nH]n3)cc(I)cc2[nH]1", "note": "[Example 234, (R)-4-(2-amino-6-iodo-1H-benzo[d]imidazol-4-yl)-N^1-(pyrrolidin-3-yl)-3-(2H-tetrazol-5-yl)benzene-1,2-disulfonamide]", "Efflux ratio": 1.00}, {"smiles": "CN(C)C1CN(S(=O)(=O)c2ccc(-c3cccc4sc(N)nc34)c(-c3nnn[nH]3)c2S(N)(=O)=O)C1", "note": "[Example 39, 3-(2-amino-1,3-benzothiazol-4-yl)-6-{[3-(dimethylamino)azetidin-l-yl]sulfonyl}-2-(1H-tetrazol-5-yl)benzenesulfonamide]", "Efflux ratio": 16.00}, {"smiles": "Nc1nc2c(-c3ccc(S(N)(=O)=O)c(S(N)(=O)=O)c3-c3nn[nH]n3)cccc2s1", "note": "[Example 143, 4-(2-aminobenzo[d]thiazol-4-yl)-3-(2H-tetrazol-5-yl)benzene-1,2-disulfonamide]", "Efflux ratio": 0.50}]}]}
